Source: patent US6204067A, “Methods of identifying modulators of the estrogen receptor” (Board of Trustees Operating Michigan State University, priority 1999, dated 2001)

Columns and labels:
estrogen receptor = molecular target: T1, estrogen receptor (Homo sapiens, UniProt P03372); conditions: higher affinity; cited from earlier work
T1 sequence (P03372 1-595): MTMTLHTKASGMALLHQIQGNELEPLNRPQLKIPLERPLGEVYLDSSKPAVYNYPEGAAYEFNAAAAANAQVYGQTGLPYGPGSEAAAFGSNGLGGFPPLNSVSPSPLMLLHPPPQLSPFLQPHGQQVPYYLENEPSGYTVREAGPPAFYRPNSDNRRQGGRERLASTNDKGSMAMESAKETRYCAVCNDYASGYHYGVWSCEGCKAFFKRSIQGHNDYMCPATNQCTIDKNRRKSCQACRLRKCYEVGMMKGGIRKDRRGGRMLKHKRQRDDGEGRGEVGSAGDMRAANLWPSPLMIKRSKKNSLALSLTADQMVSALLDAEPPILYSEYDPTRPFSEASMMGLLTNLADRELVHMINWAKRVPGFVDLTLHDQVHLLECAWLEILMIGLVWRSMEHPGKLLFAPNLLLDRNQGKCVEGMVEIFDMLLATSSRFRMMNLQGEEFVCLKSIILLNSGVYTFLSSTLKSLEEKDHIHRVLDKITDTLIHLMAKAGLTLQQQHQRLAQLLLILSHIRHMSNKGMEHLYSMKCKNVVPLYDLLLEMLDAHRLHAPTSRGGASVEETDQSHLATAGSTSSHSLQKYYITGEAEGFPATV

yeast vacuoles = test: Acidification of yeast vacuoles (acridine orange); assay type: biochemical, S. cerevisiae
Method: Vacuoles from S. cerevisiae were prepared from the protease deficient strain BJ2407 (Yeast Genetic Stock Center, University of California, Berkeley) by sequential floatation through 12% and 8% Ficoll 400 cushion as described previously [Roberts et al., Methods Enzymol, 194:644-661 (1991)] with the single modification that 1× protease inhibitor mix and 1 mM DTT was included in each step. […] Acidification was measured using AO as described above. For acidification in chloride-free solution, gluconate or glutamate was used in vesicle buffer instead of chloride.
ATP (1.5 mM) was added at 50 sec to initiate acidification and at 400 sec nigericin (1 μM) was added to dissipate pH gradients.

[1] = Method: The lumenal pH (pHL) of liposomes was assayed with pyranine, a fluorescent dye with a pKa~7.3 and a λex =405 nm in its acid form (-3 charge) and a λex =455 nm in its basic form (-4 charge). To prepare pyranine loaded liposomes, lipids (2 mg POPC, 1 mg cholesterol) supplied in chloroform suspension were dried in a round bottom flask under argon for 2 hours. The lipids were then resuspended in acidic or alkaline liposome buffer (300 mM KCl, 20 mM MES, 20 mM MOPS, 20 mM Tricine titrated with KOH to either pH 6.2 or pH 8.1) containing 0.5 mM pyranine. The suspension was incubated at room temperature overnight, then freeze-thawed 6×. Unilamellar liposomies were prepared by extrusion 3× through 2 stacked 100 nm Nucleopore (Corning/Costar Scientific, Acton, Mass.) polycarbonate filters in an Avestin (Vancouver, BC) extruder at 600 PSI.
The pyranine fluorescence was calibrated as a function of pH by diluting the liposomes with pH 6.2 into a weakly buffered solution of identical pH (300 mM KCl, 1 mM MES, 1 mM MOPS, 1 mM Tricine, pH 6.2), 1 μM nigericin to allow rapid equilibration with external pH and 5 mM DPX to quench external pyranine. The ratio of the fluorescence emission at λem =510 nm was monitored with dual excitation wavelengths of λex =405 nm and λex =455 nm. Sequential aliquots of 0.1 mM glycylglycine, pH 8.4 were added to increase pH (See FIG. 5). The fluorescence was measured after each addition and the pH was measured using a pH meter. […] The cahiration curve for the liposomes of lumenal pH 8.1 was generated identically except sequential aliquots of 0.1 mM K-MES pH 5.0 were added for titration and the curve was generated between pH 8.1 and pH 6.4.
To measure the rate of pH dissipation of liposomes with lumenal pH=6.2, the liposomes were diluted in weakly buffered solution of identical pH as described above, but with no nigericin. […] The external pH was shifted to pH 7.3 by addition of 5 mM glycylglycine pH 8.4 and the fluorescence ratio monitored. After 10 minutes, 1 μM nigericin was added to dissipate the remaining pH gradient. The pHL was calculated using the equation pH=x*log(λex =405 nm/[…])+c, were x and c are constants from the least square fit of the titration curve. To measure the rate of pH dissipation of liposomes with pHL =8.1, the identical procedure was followed except 5 mM K-MES pH 5.0 was added to shift the external pH to 6.9.
Liposomes were loaded with pyranine, a hydrophilic, non-permeable fluorescent pH indicator to assay proton permeability. […] Two steps were taken to ensure that only pHL was measured and to permit the discrimination between dissipation of pH gradient and the lysis or dye leakage from liposomes.

[2] = tested on: microsomes isolated from MCF-7/ADR cells; test: In vitro acidification of MCF-7/ADR microsomes (acridine orange quenching); assay type: biochemical; conditions: for rate of dissipation of pre-existing pH gradient: added 10 minutes after ATP, tamoxifen 8 μM, bafilomycin A1 100 nM
Method: Cells were grown in Minimal Essential. Medium supplemented with 10% Fetal Bovine Serum to confluence in 10 level Cell Factories (Nunc, Naperville, Ill.), trypsinized, washed 3× with cold PBS and lysed with a Dounce homogenizer (Pestle A) in 0.25 M sucrose, 20 mM HEPES (pH 7.4), 1 mM DTT, 1 mM EDTA, and 1× protease inhibitor mix (1 μg/ml leupeptin, 1 μ/ml pepstatin A, 1 μg/ml aprotinin, and 16 μM PMSF mixed to 100× before use). The homogenate was centrifuged twice for 10 minutes at 3000×g to remove unbroken cells and nuclei. The supernatant was layered over 20 ml of 0.5 M sucrose (20 mM HEPES (pH 7.4), 1 mM DTT, 1 mM EDTA, 1× protease inhibitor mix) and 1 ml of 2 M sucrose and centrifuged for 1 hour at 100,000 g (Beckman Ti60 Rotor). Microsomes are collected at the 0.5M and 2M interface.
To monitor acidification of the total microsomal fraction, the quenching of AO fluorescence was monitored essentially as described previously [Barasch et al., Nature 352:70-73 (1991)]. Acidic vesicles accumulate AO to high concentrations resulting in the self quenching of the dye and a decrease of the overall fluorescence. Fluorescence was measured on an SLM Aminco-Bowman series 2 luminescence spectrometer with λex =488 nm and λem =530 nm Microsomes (80 μg protein) were suspended in 2.5 ml vesicle buffer (125 mM KCl, 5 mM MgCl2, 20 mM HEPES (pH 7.4), 1 mM DTT, 1 mM EDTA, 2 mM NaN3), with 6 μM AO (5 mM stock in H2 O) in a cuvet. […] After equilibration for 30 minutes at 25° C. 1 mM Tris-ATP was added to begin acidification (100 mM stock, titrated to pH 7.4 with 1 M Tris-base before use). Twenty minutes later, 2.5 μM of nigericin (10 mM stock in EtOH) was added to dissipate any ΔpH formation.
Acridine orange (AO) was used as a probe for lumenal acidification. As vesicles acidify, they accumulate AO to self-quenching concentrations, and deplete the extra-vesicular free AO, resulting in a decrease in total fluorescence. Acidification was initiated by the addition of ATP to a purified microsomal fraction in the absence of cytosol (FIG. 1A, at t=300 sec). […] Nigericin, a K^+ /H^+ exchanger that rapidly dissipates pH gradients, was added at the end of each reaction (t=1500 seconds).

[3] = Liposome chloride concentration (lucigenin); conditions: after addition of 50 mM KCl; tamoxifen 2, 4, 8 μM, valinomycin 1 μM

CC/C(=C(/c1ccc(OCCN(C)C)cc1)c1cccc(O)c1)c1ccccc1 [Droloxifene, 3-hydroxytamoxifen]
binding affinity to the estrogen receptor relative to tamoxifen (estrogen receptor): 10-60 fold

Cl.N [ammonium chloride]
effect of addition to pre-acidified vacuoles (yeast vacuoles; added at 250 sec, tamoxifen 2 μM, ammonium 1 mM): step alkalinization | concentration relative to tamoxifen for similar inhibition (yeast vacuoles; ammonium chloride 1 mM): 1000 fold | inhibition of vacuole acidification (yeast vacuoles; pre-equilibrated, tamoxifen 2 μM or 8 μM, ammonium chloride 1 mM): slightly inhibited | effect of addition on pHL without pre-existing pH gradient ([1]; pHL 6.2 = external pH, tamoxifen 2 μM, 8 μM, NH4Cl 5 mM): alkalinization of the lumen

CO/C1=C\C(C)=C\[C@@H](C)[C@@H](O)[C@@H](C)C/C(C)=C/C=C/[C@H](OC)[C@@H]([C@@H](C)[C@@H](O)[C@H](C)[C@@]2(O)C[C@@H](O)[C@H](C)[C@@H](C(C)C)O2)OC1=O [bafilomycin A1, Bafilomycin A1]
acidification blocked ([2]; 10 nM (one tenth of 100 nM), pre-treatment, FIG. 1A): 95% | rate of dissipation of pre-existing pH gradient [2]: much slower rate

CC[C@@]1([C@@H]2O[C@@H]([C@H]3O[C@@](O)(CO)[C@H](C)C[C@@H]3C)C[C@@H]2C)CC[C@H]([C@]2(C)CC[C@]3(C[C@H](O)[C@@H](C)[C@@H]([C@@H](C)[C@@H](OC)[C@H](C)C(=O)O)O3)O2)O1 [monensin]
rate of dissipation of pre-existing pH gradient [2]: significantly faster than tamoxifen

CO[C@@H]1C[C@@H](C[C@H]2CC[C@H](C)[C@H]([C@@H](C)C(=O)O)O2)O[C@]2(O[C@](C)([C@H]3CC[C@@](C)([C@@H]4O[C@@H]([C@H]5O[C@@](O)(CO)[C@H](C)C[C@@H]5C)C[C@@H]4C)O3)C[C@H]2C)[C@@H]1C [nigericin]
rate of dissipation of pre-existing pH gradient [2]: significantly faster than tamoxifen

CC(C)[C@@H]1NC(=O)[C@H](C)OC(=O)[C@@H](C(C)C)NC(=O)[C@@H](C(C)C)OC(=O)[C@H](C(C)C)NC(=O)[C@H](C)OC(=O)[C@@H](C(C)C)NC(=O)[C@@H](C(C)C)OC(=O)[C@H](C(C)C)NC(=O)[C@H](C)OC(=O)[C@@H](C(C)C)NC(=O)[C@@H](C(C)C)OC1=O [valinomycin]
effect on pHL after shift of external pH ([1]; pHL 6.2, external pH shifted to 7.3, tamoxifen 0.5 or 2 μM, NH4Cl 1 mM, FCCP 1 μM, valinomycin 1 μM): faster dissipation of the pH gradient than FCCP | rate of pH gradient dissipation, alkaline lumen ([1]; pHL 8.1, external pH shifted to 6.9, tamoxifen 0.5-8 μM, NH4Cl 5 mM, FCCP 1 μM, valinomycin 1 μM): greater dissipation of pH gradient than FCCP | rate of chloride influx into liposomes [3]: increased the rate of chloride equilibration
